This note sets out measurements from a melting point compilation (Tetko et al.; mined from patent text by program, amines drawn as free bases though some values may be those of a salt).

SMILES strings stand for the structures. A value given as a limit tells only on which side of the number the result lay.

In turn, `CCOC(=O)/C=C/c1cc(OC)c(O)c2c(CC)cccc12` gave a melting point of 75 to 76 °C.
For `CC(C)Cn1nc(-c2ccc(O)cc2O)c2cccc(C(F)(F)F)c21` the value was 91 to 92 °C; for `COc1c(N2CCC(NC(=O)OC(C)(C)C)C2)c(F)cc2c(=O)c(C(=O)O)cn(C3CC3)c12` (stereo not drawn), 224 to 226 °C; for `CCOC(=O)N(c1ccc(Cl)cc1N)c1ccc(Cl)cc1Cl`, 137 to 139 °C.
For `CC(C)Oc1cc(C(C)C)c2c(c1)S(=O)(=O)N(c1c(F)c(F)nc(F)c1F)C2=O` the value was 130 °C; for `FC(F)(F)c1cccc(N2CCN(c3ccc(Cl)nn3)CC2)c1`, 149 °C; for `Cc1cc(SCc2cccc3[nH]c(-c4ccc(C(F)(F)F)cc4)cc23)ccc1OCC(=O)O`, 85 to 88 °C.
For `CCCOc1ccc(-c2ncc(C#N)c(Cl)n2)cc1` the value was 193 to 194 °C; for `COc1ccccc1C(OC)c1cccnn1` (stereo not drawn), 110 to 111 °C.
The molecule `Nc1sc2c(c1C(=O)c1cccc3ccccc13)CCN(Cc1ccccc1)C2` registered a melting point of 178 to 180 °C.
`CC(C)CCN1C(=O)C(NC(=O)Oc2ccccc2)C(=O)N(c2ccccc2)c2ccc(Cl)cc21` (stereo not drawn) came in with a melting point of 190 to 195 °C.
For `Cc1c(CO)ncn1Cc1ccccc1` the value was 176 to 180 °C; for `CCCC(CCC)NC(=O)c1ccc2oc(CCl)nc2c1`, 108 to 109 °C; for `O=C(O)c1ccc2c(c1)C(=O)C(=Cc1cccs1)O2`, 310 to 312 °C.
`Cc1cc(C(F)(F)F)nn1CC(=O)N1CCC(c2nc(NC(=O)Nc3ccccc3)cs2)CC1` showed a melting point of 193 °C.
The result for `O=c1[nH]c2cscc2c(=O)n1CCCCCN1CCC(=C(c2ccc(F)cc2)c2ccc(F)cc2)CC1` reads 118 to 122 °C.
For `CC(=O)c1cnc2onc(C)c2c1O` the value was 162 °C; for `CC(=O)NC(CCc1ccc(C(O)CCCCCCc2ccccc2)cc1)(CO[Si](C)(C)C(C)(C)C)CO[Si](C)(C)C(C)(C)C` (stereo not drawn), 121 to 122 °C; for `Nc1cc(-c2cc(=O)c(C(=O)O)cn2-c2ccc(F)cc2)ccc1O`, 231 to 233 °C.
`COc1ccc(Nc2nc(NC3CCNCC3)nc(N(C)N3CCCCCC3)n2)cc1Cl` yielded a melting point of 81 °C.
The result for `CC(=O)Oc1ccc2ncc3c(c2c1)CCCC3` reads 118 to 119 °C; that for `OC1CSC(Sc2ccccc2)C(O)C1O` (stereo not drawn), 150 to 151 °C; that for `Nc1ccc(Sc2ccccc2)cc1`, 99 °C.
The result for `CCC(CC)c1ccc(Cl)c2nc3n(c12)CCCCN3c1cccc2c1OC(F)(F)O2` reads 156 to 158 °C.
The molecule `O=[N+]([O-])c1oc2ccccc2c1-n1ccnc1` yielded a melting point of 147 to 149 °C.
Molecule `Nc1c(Cl)nc2ccccc2c1NCc1cc(-c2ccc(F)cc2)no1` yielded a melting point of 127 to 128 °C.
The result for `COc1ccccc1CN[C@H]1CCCN[C@H]1C(C)(C)C` (relative stereo) reads more than 251 °C; that for `CSC1=CC2=CN(S)NN2C(C)=N1`, 256 to 258 °C; that for `O=C(O)C1=COc2c(C(=O)c3cccs3)cc(Cl)c(Cl)c2O1`, 233 to 236 °C.
The result for `O=C(O)c1ccc(-c2nnc(-c3ccc(C(F)(F)F)cc3)o2)c([N+](=O)[O-])c1` reads 254 to 255 °C; that for `O=C(N[C@@H](Cc1ccc2ccccc2c1)[C@H](O)CCl)OCc1ccccc1`, 173 to 174 °C.
For `CC(C)(C)[Si](C)(C)OC1CN(c2ccc(N3C[C@H](CN=[N+]=[N-])OC3=O)cc2F)C1` the value was 121 to 122 °C; for `CON(Cc1ccccc1C)C(=O)C1=C(O)C(=O)N(C)C1`, 153 to 154 °C; for `CN(C)S(=O)(=O)c1ccc(Cl)c(-c2csc(=Nc3ccc(O)cc3)n2C)c1`, 221 to 224 °C.
Consider `CN(C)OCc1nnc2n1-c1ccc(Cl)cc1C(c1ccccc1)=NC2`, for which the melting point came to 174 °C.
With `Cc1oc(-c2ccccc2)nc1COc1ccc(C(=O)c2ccccc2OC(C)C(=O)O)cc1` (stereo not drawn), the melting point was in the range of 186 to 187 °C.
For `c1cc2c(c3c1CCN3)CCS2`, the melting point lay within 170 to 172 °C.
The result for `COc1ccc(CC(C)NCC(O)c2cccc(Br)c2)cc1` (stereo not drawn) reads 79 to 83 °C; that for `CS(=O)(=O)c1ccc(-c2nn(Cc3cccnc3)c(=O)cc2-c2ccc(Cl)cc2)cc1`, 248 °C.
In the case of `O=C(Oc1ccccc1O)c1cc(Br)c(Cl)s1`, the melting point was in the range of 145 to 147 °C.
The result for `CN(C)Cc1c[nH]c2c(C(=O)c3ccccc3)cccc12` reads 111 to 114 °C; that for `COc1ccc2cc(S(N)(=O)=O)oc2c1`, 148 to 149 °C; that for `COc1ccc(C2=C(CO)c3ccc(OC)cc3CC2)cc1`, 121 °C.
The result for `CN1CCN(C2=Nc3cc(Br)ccc3N3CCc4cc(Br)cc2c43)CC1` reads 215 to 216 °C; that for `CCCCCCCCCCCC1OC1C(=O)O` (stereo not drawn), 76 to 77 °C.
On to `CCCN1CCCC1CNS(=O)(=O)c1ccc(Nc2ccnc3cc(Cl)ccc23)cc1` (stereo not drawn), for which the melting point lay within 192 to 194 °C.
For `CCOC(=O)C(C)Oc1ncn(-c2ccc(Cl)c(Cl)c2)n1` (stereo not drawn) the value was 69 to 71 °C.
Consider `O=C(Nc1cnc2sc(CO)nc2c1)c1cc2cc(F)ccc2n1Cc1cccc(F)c1`, for which the melting point lay in the range of 225 to 226 °C.
The result for `CC1(C)OC(=C(C#N)C#N)C(C#N)=C1c1ccc(Br)cc1` reads 235 °C; that for `CCOC(=O)C(=O)Nc1ccc2c(c1)OCC(=O)N2`, 239 to 240 °C.
The result for `CCCSc1csc(C(=O)O)c1S(=O)(=O)NC(C)(C)C` reads 123 to 126 °C.
For `COc1cc2c(cc1Nc1ncc(Cl)c(Nc3ccccc3OC)n1)CCOC(=O)N2C` the value was 192 to 194 °C; for `COc1cc2c(c3c1OC(C)(C)C3)C(c1cccc(NC(=O)Nc3ccccn3)c1)=NC(C)(C)C2`, 189 to 191 °C; for `Cc1c(C)n(CC=CCl)c2c(OCc3ccc(F)cc3)nncc12`, 110 to 115 °C.
The molecule `CC(C)(C)NC(=O)[C@@H]1C[C@H](Cl)CN1C(=O)[C@@H](O)[C@H](Cc1ccccc1)NC(=O)[C@H](CC(N)=O)NC(=O)OC(C)(C)C` showed a melting point of 126 to 132 °C.
The result for `CCCCCCCCCCCCCCCCCCN1C(=O)C2(CCCCC2)NC2(CCCCC2)C1=O` reads 39 to 40 °C; that for `CC(C)=CCCC(C)=CCCC(C)=CC=CC(C)=CC(=O)N(C)C`, 39 to 39.5 °C.
For `O=C(c1ccc(-c2ccccn2)cc1)N1Cc2cccn2Cc2ccccc21` the value was 170 to 172 °C; for `CCOC(=O)[C@H](Cc1ccc(OC)cc1)NC(=O)C1(NC(=O)OC(C)(C)C)CCCC1`, 143 to 146 °C.
The result for `COc1cc(NC(C)=O)c(Cl)cc1C(=O)CCCCN1CCCCC1` reads 74 to 75 °C; that for `COc1cc(C)nc(-n2ccnc2)n1`, 53 to 54 °C.
`Cc1cccc2c(Nc3cccc(OCCN(CCCl)CCCl)c3)c3cccc(C(=O)NCCN(C)C)c3nc12`: the melting point lay within 129 to 130 °C.
The result for `Cc1cc(-c2nc3cccnn3c2-c2ccnc(NC(=O)c3ccoc3)c2)ccc1F` reads 199 to 200 °C; that for `CC(=O)c1ccc(C(C)ON2C(C)(C)CCCC2(C)C)cc1` (stereo not drawn), 61.5 to 63 °C; that for `CCOC(=O)c1cn(CCc2ccccc2)nc1N`, 76.9 to 78.6 °C.
For `CC(=O)Oc1ccc(C(=O)Nc2ccc3ccc(Cl)nc3n2)cc1` the value was 220 °C; for `Cc1csc(C(=O)NN)c1N`, 141 to 143 °C; for `CCCN(C(=O)n1ccnc1)c1ccccc1Cl`, 75.5 to 76.5 °C.
For the molecule `O=C(C1=C(c2ccc(O)cc2)CCc2ccccc21)c1ccc(OCCN2CCCCC2)cc1`, the melting point fell in the range of 83 to 85 °C.
The result for `O=C(NCCN1CCN(c2cccc3c2OCC(CO)O3)CC1)c1ccc(F)cc1` (stereo not drawn) reads 183 to 185 °C.
For `CC(C)(C)NC(=O)c1nn(-c2ccc(Br)cc2)c2c1C1CCC2CC1` the value was 191 to 193 °C; for `OCC1OC(n2cnc3c(NNC4COc5c(Cl)cccc5C4)ncnc32)C(O)C1O` (stereo not drawn), 137 to 139 °C.
For `FC(F)(F)c1ccc2nc(-c3ccccc3)oc2n1` the value was 127 to 129 °C; for `Cc1ccc(S(=O)(=O)N(C)c2ccc(Cl)cc2C(N)=S)cc1`, 180 to 182 °C.
`O=c1c(-c2cccc(F)c2)c(CNc2ncnc3[nH]cnc23)oc2ccc(F)cc12`: the melting point lay within 229 to 232 °C.
The result for `CN1CCN(Cc2cccc(OCc3ccc4ccccc4n3)c2)CC1` reads 47 to 49 °C.
With `CCc1nc2c(cnn2CC)c(NC2CCOCC2)c1CNC(=O)c1cccc(C(=O)NCc2ccc(OC)c(-c3cccc(CN4CCNCC4)c3)c2)c1`, the melting point was 138 to 140 °C.
The result for `CCOC(=O)C(Cc1ccc(C(F)(F)F)c(F)c1)C(=O)c1ccc(F)cc1` (stereo not drawn) reads 56 to 57 °C; that for `CCCCn1c(=O)c([N+](=O)[O-])c(NC)c2ccccc21`, 225 to 227 °C.
The result for `COC(=O)c1ccnc(N2CCN(Cc3ccccn3)C2=O)c1` reads 100 to 102 °C; that for `COC(=O)/C=C/c1occc(=O)c1OCC(=O)OC(C)(C)C`, 115 to 116 °C.
The result for `COC(=O)[C@@H](Cc1ccccc1)Nc1cc(-c2ccc(OCc3ccccc3)cc2)ncn1` reads 150 °C; that for `O=C(Cc1ccccn1)Nc1ccc(CCCc2ccccc2OCc2ccccc2)cc1`, 61 to 62 °C; that for `O=c1ccc(Oc2ccc(Cl)cc2)n[nH]1`, 202 °C.
The molecule `COC(=O)c1cc(C(=O)NNC(=O)c2ccccn2)c2cc(Cc3ccc(F)cc3)cnc2c1O` showed a melting point of 164 to 166 °C.
The result for `O=C(O)c1cc2cccnc2nc1C(=O)O` reads 199 to 202 °C; that for `O=C(O)c1ccc(NC(=O)c2ccc(Br)nc2)nc1`, 270 to 272 °C.
As for `CN(C)c1nc(N2CCOCC2)nc(-n2ccnc2)n1`, the melting point lay in the range of 156 to 158 °C.

One may read the melting point as the temperature of the solid-liquid transition.
